The term EC50 denotes the concentration giving half of the maximal effect.

For assay [1], the target named is T1, Human S1P1 receptor (Homo sapiens, UniProt P21453). In words: Agonist activity at an S1P1 receptor ([35S]-GTPγS exchange reaction, membrane fractions). The format is biochemical. The note with it: read-out: EC50, agonist activity at S1P1 receptor (GTP exchange reaction). The procedure: (§1) By using membrane fractions prepared from a human S1P1 receptor expressing cells (Multispan Ltd.), the agonist activity of each test compound was measured by [^35S]-GTPγS exchange reaction in accordance with a standard procedure (Methods in Molecular Biology, Vol. 552, p 143-151 (2009)), and EC50 (nM) of each test compound was computed.

Another assay deals with Human S1P3 receptor (Homo sapiens, UniProt Q99500). In words: Agonist activity at an S1P3 receptor ([35S]-GTPγS exchange reaction at 1000 nM). The format is biochemical. The following applies: read-out: percent of the maximal agonist activity at S1P3 receptor. The procedure:
as §1
By using membrane fractions prepared from Human S1P3 receptor expressing cells (Multispan Inc.), the agonist activity of the compound in the present invention was measured by a [^35S]-GTPγS exchange reaction at 1000 nM by the similar method of the Experimental Example 2.
(Binding of GTPγS marks nucleotide exchange on a G protein.)

Another assay addresses T2, Human S1P4 receptor (Homo sapiens, UniProt O95977).
T2 sequence (O95977 1-384): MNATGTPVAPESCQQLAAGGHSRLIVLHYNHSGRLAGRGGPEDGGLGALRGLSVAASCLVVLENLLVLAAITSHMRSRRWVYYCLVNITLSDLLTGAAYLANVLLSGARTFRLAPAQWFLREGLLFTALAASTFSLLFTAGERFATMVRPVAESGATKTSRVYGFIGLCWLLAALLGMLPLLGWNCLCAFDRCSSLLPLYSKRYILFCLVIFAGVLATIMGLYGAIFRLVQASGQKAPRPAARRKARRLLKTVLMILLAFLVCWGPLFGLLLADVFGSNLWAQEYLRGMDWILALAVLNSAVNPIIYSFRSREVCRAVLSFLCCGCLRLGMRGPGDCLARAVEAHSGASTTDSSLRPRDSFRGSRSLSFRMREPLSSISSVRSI
In words: Agonist activity at an S1P4 receptor (calcium influx). The format is cell-based. The note with it: at 1000 nM; read-out: activity at S1P4 receptor (elevation of intracellular calcium). The procedure: By using Human S1P4 receptor expressing cells (Multispan Inc. CG1052-1), the elevation of intracellular calcium concentration via agonist activity by the addition of 1000 nM was measured by Fret method (fluorescence resonance energy transfer).
In general terms: Calcium assays in cells follow changes in intracellular calcium, usually with a dye or a luminescent sensor.

The target in assay [2] is T1, Human S1P1 receptor. The assay can be described thus: Agonist activity at an S1P1 receptor (reporter assay, EDG1-bla/U2OS cells). The format is cell-based. Further details: host or cells: U2OS (EDG1-bla/U2OS). The following applies: S1P maximum response = 100%. The procedure: Human S1P1 receptor gene recombinant EDG1-bla/U2OS cells (Life Technologies Japan Ltd.) were plated in a 96-well half-sized clear bottom black plate at a density of 10000 cells/32 μL/well, and then the plate was incubated at 37° C. in a 5% CO2 incubator for 48 hours. A culture medium containing each test compound prepared as a 5× concentrate was added at 8 μL/well, and the plate was incubated at 37° C. in a 5% CO2 incubator for 5 hours. The substrate (LiveBLAzer™-FRET B/G substrate (CCF4-AM), Life Technologies Japan Ltd.) prepared as a 6× concentrate was added at 8 μL into each well, and the plate was incubated at room temperature for 2 hours in the dark. The fluorescence intensity of each well was detected using a bottom-reading fluorescence microplate reader (EnVision: ParkinElmer) at one excitation wavelength and 2 wavelengths for fluorescence emission (Ex409 nm, Em460 nm, Em530 nm). The intensity ratio of fluorescence at 460 nm/530 nm was calculated for each well. The maximum response ratio confirmed from the dose response of SIP was expressed as 100%. The concentration of a test compound required to stimulate 50% of its maximal activation was computed as EC50 (nM).
On the technique in general: A reporter such as luciferase makes a cellular process visible.

T1 sequence (P21453 whole entry): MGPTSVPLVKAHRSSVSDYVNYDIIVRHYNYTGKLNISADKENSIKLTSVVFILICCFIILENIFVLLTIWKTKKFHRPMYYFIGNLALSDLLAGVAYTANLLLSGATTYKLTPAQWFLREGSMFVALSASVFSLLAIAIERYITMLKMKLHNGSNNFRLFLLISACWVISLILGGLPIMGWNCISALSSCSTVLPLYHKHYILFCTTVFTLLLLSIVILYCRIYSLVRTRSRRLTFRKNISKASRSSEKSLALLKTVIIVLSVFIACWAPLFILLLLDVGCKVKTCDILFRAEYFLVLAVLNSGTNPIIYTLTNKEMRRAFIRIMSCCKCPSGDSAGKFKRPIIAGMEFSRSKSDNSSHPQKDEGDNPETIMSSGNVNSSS
Human S1P3 receptor, sequence (Q99500 whole entry): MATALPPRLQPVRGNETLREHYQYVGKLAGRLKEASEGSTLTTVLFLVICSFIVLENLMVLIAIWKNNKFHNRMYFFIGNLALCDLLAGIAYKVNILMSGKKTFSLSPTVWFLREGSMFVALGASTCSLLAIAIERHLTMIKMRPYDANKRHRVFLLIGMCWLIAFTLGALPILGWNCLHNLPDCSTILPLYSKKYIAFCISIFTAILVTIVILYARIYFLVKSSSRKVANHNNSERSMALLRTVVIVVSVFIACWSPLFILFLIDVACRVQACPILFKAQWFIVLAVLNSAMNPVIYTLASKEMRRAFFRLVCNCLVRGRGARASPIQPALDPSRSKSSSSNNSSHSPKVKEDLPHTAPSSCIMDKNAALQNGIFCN

Consider `CC(C)Oc1ccc(-c2cnc(-c3ccc(CN4CC(C(=O)O)C4)c(F)c3)s2)cc1` [Example 22, 1-(2-fluoro-4-(5-(4-isopropoxyphenyl)thiazol-2-yl)benzyl)azetidine-3-carboxylic acid], for which the concentration for a half-maximal effect (EC50) at Human S1P1 receptor [1] and at Human S1P1 receptor [2] was no more than 10 nM throughout. Also, the Emax at 1 µM on Human S1P3 receptor was less than 20%. The activation at 1 µM at Human S1P4 receptor is less than 20%.
Regarding `COc1cc(CN2CC(C(=O)O)C2)ccc1-c1ncc(-c2ccc(OC(C)C)c(Cl)c2)s1` [Example 61, 1-(4-(5-(3-chloro-4-isopropoxyphenyl)thiazol-2-yl)-3-methoxybenzyl)azetidine-3-carboxylic acid], the EC50 at Human S1P1 receptor [1] was no more than 10 nM; on Human S1P1 receptor [2], no more than 100 nM. The Emax at 1 µM on Human S1P3 receptor is less than 20%. Further, the activation at 1 µM on Human S1P4 receptor is less than 20%.
With `CC(C)Oc1ccc(-c2cnc(-c3ccc(CN4CC(C(=O)O)C4)c(C(F)(F)F)c3)s2)cc1Cl` [Example 58, 1-(4-(5-(3-chloro-4-isopropoxyphenyl)thiazol-2-yl)-2-(trifluoromethyl)benzyl)azetidine-3-carboxylic acid], the EC50 on Human S1P1 receptor [1] is no more than 50 nM; on Human S1P1 receptor [2], no more than 1 nM. Besides, on Human S1P3 receptor, the Emax at 1 µM was less than 20%. In addition, the activation at 1 µM on Human S1P4 receptor was less than 20%.
Consider `Cc1cc(-c2ncc(-c3ccc(OC(C)C)c(Cl)c3)s2)ccc1CN1CC(C(=O)O)C1` [Example 62, 1-(4-(5-(3-chloro-4-isopropoxyphenyl)thiazol-2-yl)-2-methylbenzyl)azetidine-3-carboxylic acid], for which the concentration for a half-maximal effect (EC50) on Human S1P1 receptor [1] was no more than 10 nM; at Human S1P1 receptor [2], no more than 1 nM. For the same molecule, at Human S1P3 receptor, the Emax at 1 µM is 20 to 50%. Further, the activation at 1 µM on Human S1P4 receptor was less than 20%.
The corresponding values for `O=C(O)C1CN(Cc2ccc(-c3ncc(-c4ccc(C5CCCC5)cc4)s3)cc2)C1` [Example 34, 1-(4-(5-(4-cyclopentylphenyl)thiazol-2-yl)benzyl)azetidine-3-carboxylic acid] are no more than 10 nM, no more than 1 nM, less than 20% and less than 20%.
With `Cc1cc(CN2CC(C(=O)O)C2)ccc1-c1ncc(-c2ccc(OC(C)C)cc2)s1` [Example 21, 1-(4-(5-(4-isopropoxyphenyl)thiazol-2-yl)-3-methylbenzyl)azetidine-3-carboxylic acid], the concentration giving a half-maximal response (EC50) at Human S1P1 receptor [1] was no more than 50 nM; at Human S1P1 receptor [2], no more than 10 nM. The Emax at 1 µM on Human S1P3 receptor was 20 to 50%. For the same molecule, the activation at 1 µM at Human S1P4 receptor was less than 20%.
Consider `CC(C)Oc1ccc(-c2cnc(-c3ccc(CN4CC(C(=O)O)C4)c(Cl)c3)s2)cc1Cl` [Example 63, 1-(2-chloro-4-(5-(3-chloro-4-isopropoxyphenyl)thiazol-2-yl)benzyl)azetidine-3-carboxylic acid], for which the EC50 on Human S1P1 receptor [1] is no more than 50 nM; on Human S1P1 receptor [2], no more than 1 nM. Moreover, at Human S1P3 receptor, the Emax at 1 µM was less than 20%. Besides, at Human S1P4 receptor, the activation at 1 µM is less than 20%.
For the molecule `CC(C)Oc1ccc(-c2cnc(-c3ccc(CN4CC(C(=O)O)C4)cc3Cl)s2)cc1Cl` [Example 60, 1-(3-chloro-4-(5-(3-chloro-4-isopropoxyphenyl)thiazol-2-yl)benzyl)azetidine-3-carboxylic acid], the results for the concentration giving a half-maximal response (EC50) on Human S1P1 receptor [1] and on Human S1P1 receptor [2] were no more than 10 nM and no more than 1 nM, respectively. Further, the Emax at 1 µM at Human S1P3 receptor lay in the range of 20 to 50%. For the same molecule, the activation at 1 µM on Human S1P4 receptor was less than 20%.
As for `CC(C)Oc1ccc(-c2cnc(-c3ccc(CN4CC(C(=O)O)C4)cc3)s2)cc1C#N` [Example 50, 1-(4-(5-(3-cyano-4-isopropoxyphenyl)thiazol-2-yl)benzyl)azetidine-3-carboxylic acid], the half-maximal effective concentration (EC50) at Human S1P1 receptor [1] is no more than 50 nM; at Human S1P1 receptor [2], no more than 1 nM. In addition, the Emax at 1 µM at Human S1P3 receptor lay within 20 to 50%. The activation at 1 µM on Human S1P4 receptor is less than 20%.
As for `CCCOc1ccc(-c2cnc(-c3ccc(CN4CC(C(=O)O)C4)cc3)s2)cc1` [Example 38], the half-maximal effective concentration (EC50) at Human S1P1 receptor [1] is no more than 50 nM; on Human S1P1 receptor [2], no more than 100 nM. The Emax at 1 µM at Human S1P3 receptor is less than 20%. For the same molecule, the activation at 1 µM on Human S1P4 receptor was less than 20%.
Consider `Cc1cc(CN2CC(C(=O)O)C2)ccc1-c1ncc(-c2ccc(OC(C)C)c(Cl)c2)s1` [Example 37, 1-(4-(5-(3-chloro-4-isopropoxyphenyl)thiazol-2-yl)-3-methylbenzyl)azetidine-3-carboxylic acid], for which the values for the half-maximal effective concentration (EC50) on Human S1P1 receptor [1] and at Human S1P1 receptor [2] were no more than 10 nM and no more than 1 nM, respectively. At Human S1P3 receptor, the Emax at 1 µM was 20 to 50%. Moreover, on Human S1P4 receptor, the activation at 1 µM was less than 20%.
In the same order, the values of `COc1cc(-c2ncc(-c3ccc(OC(C)C)c(Cl)c3)s2)ccc1CN1CC(C(=O)O)C1` [Example 64, 1-(4-(5-(3-chloro-4-isopropoxyphenyl)thiazol-2-yl)-2-methoxybenzyl)azetidine-3-carboxylic acid] are no more than 10 nM, no more than 10 nM, less than 20% and less than 20%.
In the case of `O=C(O)C1CN(Cc2ccc(-c3ncc(-c4ccc(OC5CCC5)cc4)s3)cc2)C1` [Example 51, 1-(4-(5-(4-cyclobutoxyphenyl)thiazol-2-yl)benzyl)azetidine-3-carboxylic acid], the EC50 at Human S1P1 receptor [1] was no more than 500 nM; at Human S1P1 receptor [2], no more than 100 nM. Further, on Human S1P3 receptor, the Emax at 1 µM lay within 20 to 50%. Also, the activation at 1 µM at Human S1P4 receptor was less than 20%.
The corresponding values for `CC(C)Cc1ccc(-c2cnc(-c3ccc(CN4CC(C(=O)O)C4)cc3)s2)cc1` [Example 48, 1-(4-(5-(4-isobutylphenyl)thiazol-2-yl)benzyl)azetidine-3-carboxylic acid] are no more than 50 nM, no more than 1 nM, 20 to 50% and less than 20%.
In the same order, the values of `CCCc1ccc(-c2cnc(-c3ccc(CN4CC(C(=O)O)C4)cc3)s2)cc1` [Example 45, 1-(4-(5-(4-propylphenyl)thiazol-2-yl)benzyl)azetidine-3-carboxylic acid] are no more than 50 nM, no more than 10 nM, less than 20% and less than 20%.
In the same order, the values of `CC(C)Cc1ccc(-c2cnc(-c3ccc(CN4CC(C(=O)O)C4)cc3F)s2)cc1C#N` [Example 59, 1-(4-(5-(3-cyano-4-isobutylphenyl)thiazol-2-yl)-3-fluorobenzyl)azetidine-3-carboxylic acid] are no more than 50 nM, no more than 1 nM, less than 20% and less than 20%.
As for `CC(C)Oc1ccc(-c2cnc(-c3ccc(CN4CC(C(=O)O)C4)cc3)s2)cc1C(F)(F)F` [Example 56, 1-(4-(5-(4-isopropoxy-3-(trifluoromethyl)phenyl)thiazol-2-yl)benzyl)azetidine-3-carboxylic acid], the EC50 at Human S1P1 receptor [1] is no more than 100 nM; on Human S1P1 receptor [2] it was no more than 1 nM. The Emax at 1 µM on Human S1P3 receptor was in the range of 20 to 50%. Also, on Human S1P4 receptor, the activation at 1 µM was less than 20%.
For the molecule `CC(C)Oc1ccc(-c2cnc(-c3ccc(CN4CC(C(=O)O)C4)c(Cl)c3)s2)cc1` [Example 23, 1-(2-chloro-4-(5-(4-isopropoxyphenyl)thiazol-2-yl)benzyl)azetidine-3-carboxylic acid], the concentration for a half-maximal effect (EC50) is no more than 50 nM at Human S1P1 receptor [1] and no more than 10 nM at Human S1P1 receptor [2]. Moreover, the Emax at 1 µM on Human S1P3 receptor was less than 20%. In addition, at Human S1P4 receptor, the activation at 1 µM is less than 20%.
Take `Cc1cc(-c2cnc(-c3ccc(CN4CC(C(=O)O)C4)cc3)s2)ccc1OC(C)C` [Example 52, 1-(4-(5-(4-isopropoxy-3-methylphenyl)thiazol-2-yl)benzyl)azetidine-3-carboxylic acid]: the results for the EC50 on Human S1P1 receptor [1] and at Human S1P1 receptor [2] were no more than 50 nM and no more than 1 nM, respectively. The Emax at 1 µM on Human S1P3 receptor was 20 to 50%. In addition, the activation at 1 µM on Human S1P4 receptor is less than 20%.
The corresponding values for `CC(C)Oc1ccc(-c2cnc(-c3ccc(CN4CC(C(=O)O)C4)c(F)c3)s2)cc1Cl` [Example 57, 1-(4-(5-(3-chloro-4-isopropoxyphenyl)thiazol-2-yl)-2-fluorobenzyl)azetidine-3-carboxylic acid] are no more than 50 nM, no more than 1 nM, less than 20% and less than 20%.

(Values after patent publication US8895753B2, “S1P receptor modulating agent” (Meiji Seika Pharma Co., Ltd., priority 2011, dated 2014).)
